Experimental data from patent US11013696B2, “Lipids and lipid compositions for the delivery of active agents” (Novartis AG, priority 2013, dated 2021).

Experiments:
[1] = Particle size and polydispersity by DLS of RSV-F replicon LNPs; type: physicochemical
Protocol: (§1) A self-replicating replicon encoding RSV F protein was administered to BALB/c mice, 8 animals per group, by bilateral intramuscular vaccinations (50 μL per leg) on days 0 and 21 with the replicon (0.1 and 1 ng) formulated as liposomes with the lipids described below. All liposomes tested were composed of 40% cationic lipid, 10% DSPC, 48% cholesterol and 2% PEG-DMG with similar amounts of RNA. The liposomes were all prepared using the same technique as described above.
(§2) % entrapment (% E), Concentration of RNA (Conc), particle size measured by DLS, and polydispersity reported by DLS of LNPs prepared with different cationic lipids

[2] = Entrapment and RNA concentration of RSV-F replicon liposomes (Quant-iT RiboGreen); type: physicochemical
Protocol: RNA was encapsulated in liposomes made essentially by the method of Geall et al. (2012) PNAS vol. 109 (36): 14604-14609, Jeffs et al. (2005) Pharmaceutical Research 22 (3):362-372 and Maurer et al. (2001) Biophysical Journal, 80: 2310-2326 The liposomes were made of 10% DSPC (zwitterionic), 40% cationic lipid, 48% cholesterol and 2% PEG-conjugated DMG (2 kDa PEG). These proportions refer to the % moles in the total liposome.
Briefly, lipids were dissolved in ethanol (2 ml), a RNA replicon was dissolved in buffer (2 ml, 100 mM sodium citrate, pH 6) and these were mixed with 2 ml of buffer followed by 1 hour of equilibration. The mixture was then dialized overnight against 1×PBS. The resulting product contained liposomes, with ˜70-95% encapsulation efficiency. For in vitro and in vivo experiments formulations were diluted to the required RNA concentration with 1×PBS.
The percentage of encapsulated RNA and RNA concentration were determined by Quant-iT RiboGreen RNA reagent kit (Invitrogen), following manufacturer's instructions. The ribosomal RNA standard provided in the kit was used to generate a standard curve. Liposomes were diluted 10× or 100× in 1×TE buffer (from kit) before addition of the dye. Separately, liposomes were diluted 10× or 100× in 1×TE buffer containing 0.5% Triton X before addition of the dye (to disrupt the liposomes and thus to assay total RNA). Thereafter an equal amount of dye was added to each solution and then ˜180 μL of each solution after dye addition was loaded in duplicate into a 96 well tissue culture plate. The fluorescence (Ex 485 nm, Em 528 nm) was read on a microplate reader. All liposome formulations were dosed in vivo based on the encapsulated amount of RNA.
as §1, §2

[3] = Percent encapsulation of mRNA in lipid nanoparticles (Quant-iT Ribogreen); type: physicochemical; details: Table 2; leptin mRNA in LNP with the cationic lipid
Procedure, shortened: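 LNPs made by T-junction mixing of ethanolic lipids (cationic lipid:DSPC:cholesterol:PEG lipid 40:10:38:2, N:P 4:1) with mRNA in citrate pH 5.8-6.0, then dialysed against PBS overnight at 4 °C. RiboGreen fluorescence (ex 480/em 520 nm) measured in TE ± 0.75% Triton X-100; encapsulation = (total − free)/total.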

RSV F protein = experiment: RSV immunogenicity: IgG titers after two IM immunizations with vA375 RNA expressing RSV-F in LNPs; type: in vivo, BALB/c mice; details: IM days 0 and 21, two weeks after two immunizations
human leptin [4] = experiment: Human leptin in mouse plasma (ELISA) after subcutaneous injection of encapsulated leptin mRNA; type: in vivo; details: hLeptin, 0.2 mpk, ob/ob
Factor VII = experiment: Mouse Factor VII dosing and plasma Factor VII activity assay (FVII siRNA LNP, IV); type: in vivo; details: 0.03 mpk, XXX mice
Protocol: Female CD-1 mice were received from Harlan Labs and maintained on standard lab chow and water ad libitum. The animals weighed approximately 25 gr at time of dosing. Formulated Factor VII siRNA was administered as a single dose intravenously via the lateral tail vein. Approximately 48 hours after injection, the mice were euthanized by CO2 inhalation followed by exsanguination through the vena cava.
Plasma collected from injected mice was assayed for Factor VII enzyme activity using the Biophen FVII kit from Hyphen Biomedical (catalog number 221304). An assay standard curve was prepared using pooled plasma aliquots from the vehicle control animals. All samples were diluted to fall within the linear range of the standard curve and Factor VII activity relative to control plasma was reported.
Lipid nanoparticles comprising lipid compounds of formula (I) and the FVII siRNA duplex sequence listed above were tested in the Factor VII Activity Assay. The results of this assay are given in Table 34 below as a percent knock down of plasma Factor VII enzyme activity at a dose of 0.3 mg/kg and 0.03 mg/kg.

human leptin [5] = experiment: Human leptin in mouse plasma (ELISA) after IV tail vein injection of encapsulated leptin mRNA; type: in vivo; details: hLeptin, 0.2 mpk, ob/ob
Protocol: Human leptin in mouse plasma was measured by ELISA. Antibodies purchased from the R&D Systems duoset (Cat #DY398E, part #840279 for capture antibody and part #840280 for detection antibody) were reconstituted using PBS and titered, again using PBS. The capture antibody was coated at 4 ug/ml in 30 ul/well on a white Nunc® Maxisorp 384 well plate (Cat #460372). After an overnight incubation at room temperature the capture antibody was aspirated and the plate blocked for 2 hours at room temperature with 90 ul/well of KPL milk blocker (Cat #50-82-00). Once the incubation was completed the plate was aspirated and recombinant standards and samples were added to the plate at 30 ul/well for 2 hours at 37° C. while shaking at 600 rpm. Sample/standard dilutions were made using casein sample diluent. Washing/aspiration 3 times with 100 ul/well followed, using Teknova plate wash solution (Cat #P1192). Next, detection antibody was diluted using casein detection antibody diluent to 12.5 ng/ml and added at 30 ul/well for 2 hours room temperature. After this incubation, the plate was washed again and a solution of poly-streptavidin-HRP (Cat #21140) at a 1:1250 dilution in HRP dilution buffer was added to each well (30 ul/well) and incubated for 30 minutes room temperature. A final wash/aspiration removed the HRP solution and a chemiluminescent substrate was added at 30 ul/well (Cat #1859678 & 1859679). The plate was quickly read using a SpectramaxM5 plate reader with a 50 ms integration time. The dynamic range of the ELISA is from 100-2,000 […] (6.25-125 pM) of human leptin. The assay is applicable to plasma from mice, rats and cynomolgus monkeys.
Before the tail vein injection, mouse body weights were recorded and diet weighted, with mice grouped according to their body weights. Mice were prepared by warming them under a heating lamp for ˜2 minutes, with the mice about 12 inches from heat lamp. […]
On day 0, animals were weighed and sorted according to average body weight. Mice were dosed, and food intake (FI) was recorded, on each of days 1-7 and days 9, 11, and 16.

[6] = RSV-F replicon LNP prepared for 1st IM
[7] = RSV-F replicon LNP prepared for 2nd IM

Structure (SMILES)	PDI [1, 6]	Size [1, 6]	PDI [1, 7]	Size [1, 7]	% E (% entrapment) [2, 6]	% E (% entrapment) [2, 7]	% encapsulation mRNA Leptin [3]	Immunogenicity (2wp2, log10 IgG titers) (RSV F protein; 0.1 ng vA375 RNA)	Immunogenicity (2wp2, log10 IgG titers) (RSV F protein; 1 ng vA375 RNA)	Expression of protein following SC injection of encapsulated mRNA (human leptin [4])	FVII knock-down following IV injection of encapsulated siRNA (Factor VII)	Expression of protein following IV injection of encapsulated mRNA (human leptin [5])
CCCCC/C=C\C/C=C\CCCCCCCCC(CCCOC(=O)CCC(=O)OC(CCCCCCCC)CCCCCCCC)OC(=O)OCCCN(C)C (stereo not drawn) [Example 58, (13Z,16Z)-4-(((3-(dimethylamino)propoxy)carbonyl)oxy)docosa-13,16-dien-1-yl heptadecan-9-yl succinate]	0.111	139.4 nm	0.075	137.1 nm	87.48%	87.03%	90.2%	4.19 log10 IgG titers	4.26 log10 IgG titers			
CCCCCCCCCCCCC(CCC(=O)OC(COC(=O)CCCCCCCCC)COC(=O)CCCCCCCCC)OC(=O)OCCCN(C)CC (stereo not drawn) [Example 91, 2-((4-(((3-(ethyl(methyl)amino)propoxy)carbonyl)oxy)hexadecanoyl)oxy)propane-1,3-diyl bis(decanoate)]							94.4%			3.5 ng/mL	97%/0.03	33.6 ng/mL
CCCCC/C=C\C/C=C\CCCCCCCC(=O)OCC(COC(=O)CCCCCCC/C=C\C/C=C\CCCCC)OC(=O)C(CCCCCCCCCCCC)OC(=O)OCCCN(C)C (stereo not drawn) [Example 98, (9Z,9′Z,12Z,12′Z)-2-((2-(((3-(dimethylamino)propoxy)carbonyl)oxy)tetradecanoyl)oxy)propane-1,3-diyl bis(octadeca-9,12-dienoate)]	0.07	139.4 nm	0.065	130.9 nm	85.91%	76.36%	73.4%	4.28 log10 IgG titers	4.64 log10 IgG titers			
CCCCC/C=C\C/C=C\CCCCCCCC(=O)OCC(COC(=O)CCCCCCC/C=C\C/C=C\CCCCC)COC(=O)CCC(CCCCCCCCCCCC)OC(=O)OCCCN(C)C (stereo not drawn) [Example 105, (9Z,9′Z,12Z,12′Z)-2-(9-dodecyl-2-methyl-7,12-dioxo-6,8,13-trioxa-2-azatetradecan-14-yl)propane-1,3-diyl bis(octadeca-9,12-dienoate)]	0.107	137.2 nm	0.123	135.7 nm	85.22%	69.54%		4.21 log10 IgG titers	4.53 log10 IgG titers			
CCCCCCCCCCCCC(CCOC(=O)CCCCC(OCC(CCC)CCC)OCC(CCC)CCC)OC(=O)OCCCN(C)C (stereo not drawn) [Example 115, 3-(((3-(dimethylamino)propoxy)carbonyl)oxy)pentadecyl 6,6-bis((2-propylpentyl)oxy)hexanoate]	0.075	141.3 nm	0.065	130.9 nm	95.76%	95.78%	97.8%	1.91 log10 IgG titers	3.31 log10 IgG titers			
CCCCCCCCCCCCC(CCCOC(=O)CCCCC(COC(=O)CCCCCCC)COC(=O)CCCCCCC)OC(=O)C1(C)CCN(C)CC1 (stereo not drawn) [Example 131, 2-(5-((4-((1,4-dimethylpiperidine-4-carbonyl)oxy)hexadecyl)oxy)-5-oxopentyl)propane-1,3-diyl dioctanoate]	0.119	138.3 nm	0.07	143.5 nm	85.31%	80.31%	96.4%	4.43 log10 IgG titers	5.22 log10 IgG titers			
